Source: patent US20250093263A1, “FRET-BASED ASSAYS” (The General Hospital Corporation, priority 2021, published 2025)
Several values for one entry are separate records, joined by “and”; a condition that tells them apart may be missing. Equal entries are not always repeated. Structures can show the parent of a compound that is named as a salt. Where two headings read alike, the source gives them in different places. Marks after values point to notes of the source that are not given here. Blank lines part the entries; values can stand above or below the compound they belong to.

How the values were obtained:
PfcProRS = biological target: T1, PfcProRS (Plasmodium falciparum, UniProt Q8I5R7); experiment: biochemical; format: binding
T1 construct: made in house; host or cells: SoluBL-21 E. coli
T1 sequence (Q8I5R7 249-746): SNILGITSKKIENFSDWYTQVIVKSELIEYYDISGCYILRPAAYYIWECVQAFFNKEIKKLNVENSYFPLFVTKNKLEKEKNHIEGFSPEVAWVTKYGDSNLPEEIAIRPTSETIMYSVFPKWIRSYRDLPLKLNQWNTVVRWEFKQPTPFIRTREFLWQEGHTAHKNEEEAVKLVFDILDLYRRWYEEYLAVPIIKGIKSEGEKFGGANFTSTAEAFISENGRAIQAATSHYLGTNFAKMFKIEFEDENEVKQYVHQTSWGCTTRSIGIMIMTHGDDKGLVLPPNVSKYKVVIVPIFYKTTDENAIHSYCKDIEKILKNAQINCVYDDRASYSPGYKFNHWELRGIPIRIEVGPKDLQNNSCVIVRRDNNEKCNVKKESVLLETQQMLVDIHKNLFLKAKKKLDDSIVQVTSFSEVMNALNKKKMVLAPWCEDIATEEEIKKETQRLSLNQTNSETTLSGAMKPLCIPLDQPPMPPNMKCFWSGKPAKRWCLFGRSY

Keap1 (His/GST) [1] = biological target: T2, Keap1 (His/GST) (Homo sapiens, UniProt Q14145); experiment: Keap1 TR-FRET Assay 3 (CDDO-FITC/Tb-Anti-6xHis); format: binding
T2 sequence (Q14145 whole entry): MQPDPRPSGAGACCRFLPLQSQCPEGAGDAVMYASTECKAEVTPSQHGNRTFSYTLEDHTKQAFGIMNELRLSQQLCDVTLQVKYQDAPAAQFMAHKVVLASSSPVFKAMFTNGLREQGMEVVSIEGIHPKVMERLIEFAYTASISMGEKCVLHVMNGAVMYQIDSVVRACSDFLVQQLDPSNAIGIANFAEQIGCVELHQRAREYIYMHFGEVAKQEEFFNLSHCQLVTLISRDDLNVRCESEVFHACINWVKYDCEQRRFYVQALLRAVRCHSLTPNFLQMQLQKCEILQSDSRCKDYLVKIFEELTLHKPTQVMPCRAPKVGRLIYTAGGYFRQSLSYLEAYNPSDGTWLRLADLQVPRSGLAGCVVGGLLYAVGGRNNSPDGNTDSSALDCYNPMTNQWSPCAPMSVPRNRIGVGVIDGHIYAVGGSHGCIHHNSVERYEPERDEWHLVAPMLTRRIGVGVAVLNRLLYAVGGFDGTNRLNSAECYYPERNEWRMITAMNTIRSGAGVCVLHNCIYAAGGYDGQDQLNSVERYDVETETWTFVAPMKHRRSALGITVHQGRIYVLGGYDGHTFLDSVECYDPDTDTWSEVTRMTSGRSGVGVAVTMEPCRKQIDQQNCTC

Keap1 (His/GST) [2] = biological target: T2, Keap1 (His/GST); experiment: biochemical
[3] = biological target: T3, WT Keap1 (tag-free, full-length) (Homo sapiens, UniProt Q14145); experiment: biochemical; settings: read-out: Assay 1: % at 100
T3 sequence (Q14145 whole entry): as above

[4] = biological target: T3, WT Keap1 (tag-free, full-length); experiment: biochemical
P. falciparum Dd2-2D4 = experiment: P. falciparum asexual blood stage growth assay, wild type; settings: for EC50: DD2, 72 h, read-out: Dd2 (EC50 [nM]) wt; for percent growth at 10 μM: Dd2 wt, shown because compound had <50% growth inhibition
[5] = tested on: halofuginone-induced P. falciparum (elevated proline homeostasis); experiment: P. falciparum asexual blood stage growth assay, halofuginone-induced parasites; settings: for EC50: Plasmodium falciparum, DD2, 72 h, read-out: Dd2 (EC50 [nM]) Halofuginone-induced; for percent growth at 10 μM: halofuginone-induced, shown because compound had <50% growth inhibition
HsProRS = biological target: T4, HsProRS (Homo sapiens, UniProt P07814); experiment: TR-FRET ProRS ligand displacement / saturation binding assay, HsProRS
T4 construct: made in house; host or cells: SoluBL-21 E. coli
T4 sequence (P07814 996-1512): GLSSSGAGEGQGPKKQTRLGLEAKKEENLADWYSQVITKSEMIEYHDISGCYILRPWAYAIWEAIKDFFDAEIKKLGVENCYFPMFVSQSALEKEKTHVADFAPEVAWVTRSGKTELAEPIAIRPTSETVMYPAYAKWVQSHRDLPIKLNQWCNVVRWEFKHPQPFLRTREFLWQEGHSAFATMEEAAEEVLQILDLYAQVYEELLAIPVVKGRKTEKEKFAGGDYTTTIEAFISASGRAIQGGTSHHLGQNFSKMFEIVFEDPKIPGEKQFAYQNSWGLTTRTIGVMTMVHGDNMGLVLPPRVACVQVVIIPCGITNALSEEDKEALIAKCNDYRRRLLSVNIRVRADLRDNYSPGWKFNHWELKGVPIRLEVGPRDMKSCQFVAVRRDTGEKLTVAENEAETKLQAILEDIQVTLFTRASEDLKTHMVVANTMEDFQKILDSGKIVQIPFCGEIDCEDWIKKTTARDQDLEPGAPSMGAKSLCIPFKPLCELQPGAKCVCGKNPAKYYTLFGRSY

[6] = PfcProRS (KD [nM]) +proline, 100 μM proline
[7] = PfcProRS (KD [nM]) −, absence of substrates
[8] = absence of substrates, read-out: HsProRS (KD [nM]) −
[9] = read-out: HsProRS (KD [nM]) +proline, 100 μM proline

Kd (PfcProRS; dose-titration of ATP and proline against tracer MAT379, read-out: PfcProRS KD of substrates): 892000 nM
Structure (SMILES): Nc1ncnc2c1ncn2[C@@H]1O[C@H](COP(=O)(O)OP(=O)(O)OP(=O)(O)O)[C@@H](O)[C@H]1O [ATP]

IC50 (Keap1 (His/GST) [1]): 4 nM
IC50 (Keap1 (His/GST) [2]): 224000 nM
Structure (SMILES): CC1(C)CC[C@]2(C(=O)O)CC[C@]3(C)[C@H](C(=O)C=C4[C@@]5(C)C=C(C#N)C(=O)C(C)(C)[C@@H]5CC[C@]43C)[C@@H]2C1 [CDDO, (4aS,6aR,6bS,8aR,12aS,14aR,14bS)-11-cyano-2,2,6a,6b,9,9,12a-heptamethyl-10,14.dioxo-1,3,4,5,6,6a,6b,7,8,8a,9,10,12a,14,14a,14b-hexadecahydropicene-4a(2H)-carboxylic acid]

IC50 (Keap1 (His/GST) [1]): 11 nM
inhibition at 100 µM [3]: < 10%
IC50 [4]: 24 nM
Kd [4]: 13 nM
IC50 (Keap1 (His/GST) [2]): 103000 nM
Structure (SMILES): COC(=O)[C@]12CCC(C)(C)C[C@H]1[C@H]1C(=O)C=C3[C@@]4(C)C=C(C#N)C(=O)C(C)(C)[C@@H]4CC[C@@]3(C)[C@]1(C)CC2 [CDDO-Me, bardoxolone methyl]

Structure (SMILES): CC(C)(C)OC(=O)NC1CCN(C(=O)Nc2nccnc2C(=O)NC2Cc3ccccc3C2)CC1 [Compound 7, tert-butyl (1-((3-((2,3-dihydro-1H-inden-2-yl)carbamoyl)pyrazin-2-yl)carbamoyl)piperidin-4-yl)carbamate]
Kd (PfcProRS; [6]): 13.2 nM
Kd (PfcProRS; [7]): 13.1 nM
EC50 (P. falciparum Dd2-2D4; Plasmodium falciparum): 90.6 nM
EC50 [5]: 2170 nM

Structure (SMILES): CC(C)(C)OC(=O)N1CCC[C@H]1C(=O)NC1CCN(C(=O)Nc2nccnc2C(=O)NC2Cc3ccccc3C2)CC1 [Compound 31, tert-butyl (S)-2-((1-((3-((2,3-dihydro-1H-inden-2-yl)carbamoyl)pyrazin-2-yl)carbamoyl)piperidin-4-yl)carbamoyl)pyrrolidine-1-carboxylate]
Kd (PfcProRS; [6]): 1990 nM
Kd (PfcProRS; [7]): 2300 nM
Kd (HsProRS): > 5000 nM
percent growth at 10 μM (P. falciparum Dd2-2D4): 102%†
percent growth at 10 μM [5]: 98%†

Structure (SMILES): CC(C)(C)OC(=O)N1CCC[C@H]1C(=O)NCC1CCN(C(=O)Nc2nccnc2C(=O)NC2Cc3ccccc3C2)CC1 [Compound 32, tert-butyl (S)-2-(((1-((3-((2,3-dihydro-1H-inden-2-yl)Carbamoyl)pyrazin-2-yl)carbamoyl)piperidin-4-yl)methyl)carbamoyl)pyrrolidine-1-carboxylate]
Kd (PfcProRS; [6]): 5.35 nM
Kd (PfcProRS; [7]): 6.67 nM
Kd (HsProRS; [8]): 72.1 nM
Kd (HsProRS; [9]): 270 nM
EC50 (P. falciparum Dd2-2D4; Plasmodium falciparum): 63.2 nM
EC50 [5]: 1530 nM

IC50 (Keap1 (His/GST) [1]): 64800 nM
inhibition at 100 µM [3]: < 5%
IC50 [4]: 129000 nM
Kd [4]: 67400 nM
IC50 (Keap1 (His/GST) [2]): 266000 nM
Structure (SMILES): COC(=O)/C=C/C(=O)OC [DMF, dimethyl fumarate]

Structure (SMILES): CC[C@H](C)[C@H](N)C(=O)NS(=O)(=O)NC[C@H]1O[C@@H](n2cnc3c(N)ncnc32)[C@H](O)[C@@H]1O [IleSNA]
IC50 (P. falciparum Dd2-2D4; Plasmodium falciparum, DD2, read-out: ABS IC50): 1.19 nM

Structure (SMILES): O=C(NC1Cc2ccccc2C1)c1nccnc1NC(=O)N1CCC(NC(=O)[C@@H]2CCCN2)CC1 [MAT334, (S)-N-(2,3-dihydro-1H-inden-2-yl)-3-(4-(pyrrolidine-2-carboxamido)piperidine-1-carboxamido)pyrazine-2-carboxamide]
Kd (PfcProRS; [6]): 660 nM
Kd (PfcProRS; [7]): 1380 nM
Kd (HsProRS; [9]): 2130 nM
percent growth at 10 μM (P. falciparum Dd2-2D4): 76%†
percent growth at 10 μM [5]: 59%†

Structure (SMILES): O=C(NC1Cc2ccccc2C1)c1nccnc1NC(=O)N1CCC(CNC(=O)[C@@H]2CCCN2)CC1 [MAT345, (S)-N-(2,3-dihydro-1H-inden-2-y)-3-(4-((pyrrolidine-2-carboxamido)methyl)piperidine-1-carboxamido)pyrazine-2-carboxamide]
Kd (PfcProRS; [6]): 35.9 nM
Kd (PfcProRS; [7]): 39.8 nM
Kd (HsProRS; [8]): 140 nM
Kd (HsProRS; [9]): 282 nM
EC50 (P. falciparum Dd2-2D4; Plasmodium falciparum): 249 nM
EC50 [5]: 7210 nM

Structure (SMILES): O=C(CCCCCNC(=S)Nc1ccc(-c2c3ccc(=O)cc-3oc3cc(O)ccc23)c(C(=O)O)c1)NC1CCN(C(=O)Nc2nccnc2C(=O)NC2Cc3ccccc3C2)CC1 [MAT379]
koff (PfcProRS; 10-fold dilution of 100 nM HT-PfcProRS and 560 nM MAT379, read-out: first-order dissociation rate constant (koff)): < 0.00267 s⁻¹
Kd (PfcProRS; absence of substrates, read-out: PfcProRS (KD [nM]) −): 100 nM
Kd (HsProRS; dose-titration of tracer on HT-HsProRS, read-out: HsProRS KD of tracers): 1700 nM
fold less tightly bound to HT-HsProRS relative to HT-PfcProRS (HsProRS; tracer KD ratio): 17 fold and > 15 fold
